In brackets after ≈: the same amount, converted by molar mass. Read-outs that look alike come from different tables or passages of the source.
What was measured:
HEK293 = assay: Cell toxicity, Alamar blue assay, 24 hours exposure; format: cell-based; conditions: Homo sapiens
Description: (§1) Toxicity was primarily determined by measuring cytotoxicity with the Alamar blue assay. In short, cells (HEK293, NRK-52E and Caco-2) were plated in 96-well plates and cultured overnight. HKI compounds were diluted to concentrations ranging from 0.39 to 500 µg/mL in serum-free medium and added to the cells.
(§2) After exposure, cells were incubated for 24 hours. Experiments were mostly performed by single measurement. […] After 24 hours HKIs were removed from the cells and Alamar blue was added, incubated for 45 minutes and fluorescence was measured on a spectrophotometer. Alamar blue measures the conversion of blue, low fluorescent resazurin into high fluorescent pink resorufin. This conversion can only be made in viable mitochondria in viable cells and therefore this dye provides a measure for cytotoxicity.

NRK-52E = assay: as above; format: cell-based; conditions: for IC50: Rattus norvegicus, read-out: IC50 NRK-52E (50 mg/mL stock)
Description: as §1, §2

E. faecium Van A = assay: Minimal inhibitory concentration (MIC), double-dilution in broth, OD600; format: cell-based, Enterococcus faecium; conditions: unit assumed
Description: (§3) In short, a stock solution of 5 mg/mL of HKIs in DMSO was made. This stock was diluted to 50 µg/mL in broth in a 96 well plate. Dilutions were made (factor 2) directly in the plate with a multi-channel pipet. Bacteria cultured in suspension overnight were then added to the plate (except negative control) and the plate was incubated for 24 hours. After 24 hours the OD600 was measured using a spectrophotometer. A positive control (with bacteria, without HKI) was also measured on each plate. The MICs were not determined in duplo/triplicate in the same experiment, however, the MICs of several HKIs were measured in different experiments and no major differences (max. 1x dilution) were found in the MICs between the experiments.
(§4) Bacterial strains used in this study for antibacterial susceptibility testing (Table S2) were propagated using standard microbiological procedures. Minimal inhibitory concentrations (MICs) were determined following a standard double-dilution method (42), 73. MICs were recorded as the lowest concentration of the compound where no visible growth was observed. After plating the dilutions around the MIC or growing them in fresh MH media, minimal bactericidal concentration (MBC) was recorded as the lowest concentration of the compound at which no colonies were formed or no growth was observed, respectively. For M. marinum, MICs were determined in Middlebrook 7H9 broth (Difco) and MICs were determined after 3 days incubation at 30 °C.
(§5) Grow the bacterial colonies to be tested from single colonies on an agar plate in LB broth or suitable bacterial growth medium overnight at 37°C. Prepare a 5 mg/mL stock solution of compounds to be tested in DMSO. One 96-well plate per bacterial strain was prepared. First, put 50 uL of medium to each well. Add 48 µL of medium to all wells in row A. Pipet 2 µL of antimicrobial master stock into the top well (row A). Beware, the antimicrobial concentration will be diluted 2x after adding the bacterial culture. Total volume in each well will be 100 µL. In A11, pipet 2 µL of DMSO. Make a serial dilution from row A to row H, pipetting 50 µL from the previous row into the new one. Mix well by pipetting up and down. Discard the last 50 µL so that there is 50 µl in each well In a clean, new plastic pipetting cup, dilute the overnight bacterial culture 100 times. Add 100 µL of bacterial overnight culture to 9900 µL of medium. Mix the suspension well. Once the serial dilutions are complete for all antimicrobial compounds, add 50 µL of diluted overnight bacterial culture to each well (except column 12). Mix by pipetting or put the plate on the shaker. Per 2 plates, close with parafilm around the edges and place in the incubator overnight. After overnight culturing, measure bacterial growth on the SpectraMax. The lowest concentration where no growth is observed is the MIC. To determine the MIB pipette 5 µL from each well of the 96 well plate where now growth was observed on to an LB agar plate, without antimicrobial. Put the plates in the incubator to grow overnight. The minimal concentration where no growth can be seen on the agar plate is the MBC.

M. marinum = assay: Minimal inhibitory concentration (MIC), Middlebrook 7H9 broth, 3 days at 30 °C; format: cell-based, Mycobacterium marinum; conditions: unit assumed
Description: as §3, §4, §5

S. aureus Newman = assay: Minimal inhibitory concentration (MIC), double-dilution in broth, OD600; format: cell-based, Staphylococcus aureus Newman; conditions: unit assumed
Description: as §3, with “plate.” for “plate. The MICs were not determined in duplo/triplicate in the same experiment, however, the MICs of several HKIs were measured in different experiments and no major differences (max. 1x dilution) were found in the MICs between the experiments.”
Bacterial strains used in this study for antibacterial susceptibility testing (Table S2) were propagated using standard microbiological procedures. Minimal inhibitory concentrations (MICs) were determined following a standard double-dilution method (42), 73. […] For M. marinum, MICs were determined in Middlebrook 7H9 broth (Difco) and MICs were determined after 3 days incubation at 30 °C.
as §5

S. suis = assay: as above; format: cell-based, Streptococcus suis; conditions: unit assumed
Description: as §3, §4, §5

P. multocida = assay: as above; format: cell-based, Pasteurella multocida; conditions: unit assumed
Description: as §3, §4, §5

E. coli JW5503 = format: cell-based, Escherichia coli; conditions: unit assumed
Description: as §3, §4, §5

[1] = HEK293, read-out: IC50 HEK293 (5 mg/mL stock)
[2] = HEK293, read-out: IC50 HEK293 (50 mg/mL stock)

Row | Compound | IC50 (HEK293; [1]) [µg/mL] | IC50 (HEK293; [2]) [µg/mL] | IC50 (NRK-52E) [µg/mL] | MIC E. faecium Van A (E. faecium Van A) [µg/mL] | MIC M. marinum (M. marinum) [µg/mL] | MIC S. aureus Newman (S. aureus Newman) [µg/mL] | MIC S. suis (S. suis) [µg/mL] | MIC P. multocida (P. multocida) [µg/mL] | MIC E. coli JW5503 (E. coli JW5503) [µg/mL] | IC50 NRK-52E (50 mg/mL stock) (NRK-52E; 50 mg/mL stock)
1 | Oc1ccc(-c2onc(C(F)(F)F)c2-c2ccc(Cl)cc2)c(O)c1 [AND-2, 4-[4-(4-chlorophenyl)-3-(trifluoromethyl)isoxazol-5-yl]resorcinol] | 6.97 (≈ 19.6 µM) | 36.7 (≈ 103 µM) | ~3.88 (≈ 10.9 µM) | 6.25 (≈ 17.6 µM) | > 50 | 3.13 (≈ 8.8 µM) | 12.5 (≈ 35.1 µM) | 25 (≈ 70.3 µM) |  | 
2 | CCOc1ccc(-c2[nH]nc(C(F)(F)F)c2-c2ccc(OC)c(OC)c2)c(O)c1 [May-3, 2-[4-(3,4-dimethoxyphenyl)-5-(trifluoromethyl)-1∼{H}-pyrazol-3-yl]-5-ethoxy-phenol] | 6.69 (≈ 16.4 µM) |  | ~0.8 (≈ 1.96 µM) |  | 25 (≈ 61.2 µM) | 12.5 (≈ 30.6 µM) | 12.5 (≈ 30.6 µM) | > 50 |  | 
3 | CCOc1ccc(-c2n[nH]c(C(F)(F)F)c2-c2ccc(OC)cc2)c(O)c1 [May-7, 5-ethoxy-2-[4-(4-methoxyphenyl)-5-(trifluoromethyl)-1∼{H}-pyrazol-3-yl]phenol] | 5.68 (≈ 15 µM) | 231 (≈ 610 µM) | ~31.1 (≈ 82.3 µM) |  | 50 (≈ 132 µM) | 6.25 (≈ 16.5 µM) | 6.25 (≈ 16.5 µM) | > 50 |  | 
4 | COc1ccc(-c2n[nH]c(C(F)(F)F)c2-c2ccccc2OC)c(O)c1 [May-19, 5-methoxy-2-[4-(2-methoxyphenyl)-5-(trifluoromethyl)-1∼{H}-pyrazol-3-yl]phenol] | 5.74 (≈ 15.8 µM) |  | 24.1 (≈ 66.1 µM) | > 50 | 50 (≈ 137 µM) | 25 (≈ 68.6 µM) | 25 (≈ 68.6 µM) | 50 (≈ 137 µM) |  | 
5 | CCOc1ccc(-c2n[nH]c(C(F)(F)F)c2-c2ccccc2)c(O)c1 [May-22, 5-ethoxy-2-[4-phenyl-5-(trifluoromethyl)-1∼{H}-pyrazol-3-yl]phenol] | 5.8 (≈ 16.7 µM) | 19.9 (≈ 57.1 µM) | 19.2 (≈ 55 µM) | > 50 | > 50 | 3.13 (≈ 8.99 µM) | 6.25 (≈ 17.9 µM) | 50 (≈ 144 µM) |  | 
6 | O=[N+]([O-])c1ccc(COc2ccc(-c3[nH]nc(C(F)(F)F)c3-c3ccc(Cl)cc3)c(O)c2)cc1 [Sep-12, 2-[4-(4-chlorophenyl)-5-(trifluoromethyl)-1∼{H}-pyrazol-3-yl]-5-(4-nitrobenzyl)oxyphenol] |  |  | 14.7 (≈ 30.1 µM) | 12.5 (≈ 25.5 µM) | 50 (≈ 102 µM) | 3.13 (≈ 6.39 µM) | 12.5 (≈ 25.5 µM) | > 50 | > 50 | 
7 | COc1ccc(-c2c(C(F)(F)F)n[nH]c2-c2ccc(OCc3ccc(F)cc3)cc2O)cc1 [Sep-14, 5-(4-fluorobenzyl)oxy-2-[4-(4-methoxyphenyl)-5-(trifluoromethyl)-1∼{H}-pyrazol-3-yl]phenol] |  |  | ~16.6 (≈ 36.3 µM) | 12.5 (≈ 27.3 µM) | > 50 | 12.5 (≈ 27.3 µM) | 25 (≈ 54.5 µM) | > 50 | 25 (≈ 54.5 µM) | 
8 | C=C(C)COc1ccc(-c2[nH]nc(C(F)(F)F)c2-c2ccccc2OC)c(O)c1 [Sep-15, 2-[4-(2-methoxyphenyl)-5-(trifluoromethyl)-1∼{H}-pyrazol-3-yl]-5-(2-methylallyloxy)phenol] |  |  | ~7.62 (≈ 18.8 µM) | 6.25 (≈ 15.5 µM) | 50 (≈ 124 µM) | 3.13 (≈ 7.74 µM) | 12.5 (≈ 30.9 µM) | > 50 | 6.25 (≈ 15.5 µM) | 
9 | COc1ccccc1-c1c(C(F)(F)F)n[nH]c1-c1ccc(OCc2ccc(C)cc2)cc1O [Sep-16, 2-[4-(2-methoxyphenyl)-5-(trifluoromethyl)-1∼{H}-pyrazol-3-yl]-5-(4-methylbenzyl)oxy-phenol] |  |  | ~8.72 (≈ 19.2 µM) | 12.5 (≈ 27.5 µM) | > 50 | 6.25 (≈ 13.8 µM) | 25 (≈ 55 µM) | > 50 | 50 (≈ 110 µM) | 
10 | COc1ccccc1-c1c(C(F)(F)F)n[nH]c1-c1ccc(OCc2ccccc2)cc1O [Sep-17, 5-benzoxy-2-[4-(2-methoxyphenyl)-5-(trifluoromethyl)-1∼{H}-pyrazol-3-yl]phenol] |  |  | ~8.97 (≈ 20.4 µM) | 12.5 (≈ 28.4 µM) | > 50 | 6.25 (≈ 14.2 µM) | 25 (≈ 56.8 µM) | > 50 | 12.5 (≈ 28.4 µM) | 
11 | O=[N+]([O-])c1ccc(COc2ccc(-c3[nH]nc(C(F)(F)F)c3-c3ccccc3)c(O)c2)cc1 [Sep-18, 5-(4-nitrobenzyl)oxy-2-[4-phenyl-5-(trifluoromethyl)-1∼{H}-pyrazol-3-yl]phenol] |  |  | ~14.7 (≈ 32.3 µM) | 12.5 (≈ 27.4 µM) | > 50 | 6.25 (≈ 13.7 µM) | 12.5 (≈ 27.4 µM) | > 50 | 12.5 (≈ 27.4 µM) | 
12 | Oc1ccc(-c2n[nH]c(C(F)(F)F)c2-c2ccc(Br)cc2)c(O)c1 [Sep-20, 4-[4-(4-bromophenyl)-5-(trifluoromethyl)-1∼{H}-pyrazol-3-yl]resorcinol] |  |  |  | 25 (≈ 62.6 µM) | > 50 | 6.25 (≈ 15.7 µM) | 25 (≈ 62.6 µM) | > 50 | 6.25 (≈ 15.7 µM) | 7.58
13 | COc1ccc(-c2c(-c3ccc(OCc4ccc(C)cc4)cc3O)n[nH]c2C(F)(F)F)cc1OC [Sep-27, 2-[4-(3,4-dimethoxyphenyl)-5-(trifluoromethyl)-1∼{H}-pyrazol-3-yl]-5-(4-methylbenzyl)oxy-phenol] |  |  | ~17.6 (≈ 36.3 µM) | > 50 | 50 (≈ 103 µM) | 3.13 (≈ 6.46 µM) | 50 (≈ 103 µM) | > 50 | > 50 | 
14 | COc1ccc(-c2c(-c3ccc(OCc4ccccc4)cc3O)n[nH]c2C(F)(F)F)cc1OC [Sep-28, 5-benzoxy-2-[4-(3,4-dimethoxyphenyl)-5-(trifluoromethyl)-1∼{H}-pyrazol-3-yl]phenol] |  |  | ~17.3 (≈ 36.7 µM) | > 50 | > 50 | 12.5 (≈ 26.6 µM) | > 50 | > 50 | 25 (≈ 53.1 µM) | 
15 | COc1ccccc1-c1c(-c2ccc(OCC=C(C)C)cc2O)n[nH]c1C(F)(F)F [Sep-30, 2-[4-(2-methoxyphenyl)-5-(trifluoromethyl)-1∼{H}-pyrazol-3-yl]-5-(3-methylbut-2-enoxy)phenol] |  |  | ~17.2 (≈ 41.2 µM) | 12.5 (≈ 29.9 µM) | > 50 | 6.25 (≈ 14.9 µM) | 25 (≈ 59.7 µM) | > 50 | 6.25 (≈ 14.9 µM) | 
